Data on six compounds can be found in article PMC4587935, “Structure and Sialyllactose Binding of the Carboxy-Terminal Head Domain of the Fibre from a Siadenovirus, Turkey Adenovirus 3” (PLoS ONE, 2015).

In test [1] the test system is His-tagged TAdV-3 fibre head protein. Kind of test: Glycan microarray binding assay. The arrangement: species or system turkey adenovirus 3 (TAdV-3). As to conditions: for fluorescence intensity on glycan microarray: binding threshold approximately 1,600 RFU (five times background); for inhibition of fibre head binding to the glycan microarray: in the presence of 100 mM sugar. The method, then: The proteins were profiled on neoglycoconjugate microarrays to identify potential glycan ligands for TAdV-3 fibre head proteins. The microarrays were constructed as previously described and presented 71 different simple to complex glycans on glycoproteins or attached to protein backbones through linkers (S1 Table). Several viral protein concentrations were titrated in Tris-buffered saline supplemented with Ca^2+ and Mg^2+ ions (TBS; 20 mM Tris-HCl, 100 mM NaCl, 1 mM CaCl2, 1 mM MgCl2, pH 7.2) and with 0.05% Tween 20 (TBS-T). It was determined that 10 μg/ml in TBS-T was the concentration for optimal signal to noise ratio. Similarly, the concentration of the anti-6XHis IgG-CF640R (Sigma Aldrich, Tres Cantos, Spain) monoclonal antibody for detection of viral protein binding was optimized and a 1 in 750 dilution in TBS-T was subsequently used.
Two-step incubations were carried out as previously described with minor modifications. First, the viral proteins were incubated on the microarray slides for 1 h at 23°C and 4 rpm. The microarray slides and gaskets were then separated while submerged under TBS-T, washed 3 times in TBS-T for 2 min each with gentle agitation in a Coplin jar, with a final 2 min wash in TBS. After centrifuging to dry the slides (1,500 rpm, 5 min), all subsequent steps were carried out in the dark. The microarray slides were incubated with the fluorescently labelled anti-6XHis IgG as in the first step, washed and dried by centrifugation and scanned immediately on an Agilent G2505 microarray scanner using the Cy5 channel (633 nm excitation, 80% PMT, 5 mm resolution). All experiments were carried out in triplicate and binding inhibition assays were performed in parallel in the presence of 100 mM galactose and lactose to verify specific binding. Data extraction and analysis was carried out as previously described. Binding was taken as above an experimental threshold of five times the background, which was approximately 1,600 relative fluorescence units (RFU) in this case.

In test [2] the test system is virulent TAdV-3 fibre head. Kind of test: Saturation transfer difference NMR (STD-NMR), virulent variant. The format is binding, turkey adenovirus 3 (TAdV-3). The note with it: 1.5 mM ligand, 15 μM protein, phosphate pH 7.7, 298 K. The method, then:
(§1) Saturation transfer difference nuclear magnetic resonance spectroscopy (STD-NMR) experiments were performed at 298 K in an AVANCE 500 MHz spectrometer (Bruker, Rivas Vaciamadrid, Spain) equipped with a 5 mm inverse probe head. STD experiments were performed in fully deuterated 10 mM potassium phosphate pH 7.7. Samples contained 1.5 mM of either 3'- or 6'-sialyllactose and 15 μM of either the virulent or the avirulent versions of TAdV-3 fibre head. The protein was saturated on-resonance at 0.5 ppm and off-resonance at 100 ppm with a train of Gaussian-shaped pulses of 50 ms each, totalling an irradiation time of 2 s. A T2 relaxation filter consisting of a 15 ms 5 kHz spin-lock was used to reduce the protein background signals. STD spectra were obtained by subtracting the on-resonance spectra from the off-resonance spectra. STD intensities were measured comparing each STD spectrum with the correspondent off-resonance spectrum and normalizing to the ligand peak receiving the highest degree of saturation (in all cases, the 5''-N-acetyl). The resonances of 3'- or 6'-sialyllactose were assigned by standard procedures (^1H-^1H TOCSY 70 ms, ^1H-^1H ROESY 600 ms and phase-sensitive ^1H-^13C HSQC). Data were analyzed with TOPSPIN (Bruker) and figures were made with MESTRENOVA (Mestrelab Research, Santiago de Compostela, Spain).

The test system of test [3] is avirulent TAdV-3 fibre head. Kind of test: Saturation transfer difference NMR (STD-NMR), avirulent variant. The format is binding, turkey adenovirus 3 (TAdV-3). The note with it: 1.5 mM ligand, 15 μM protein, phosphate pH 7.7, 298 K. As to the method:
as §1

Test [4] concerns the target TAdV-3 fiber head mutant R368A (avirulent context) (Turkey adenovirus 3, UniProt A0ABF7PFF5, R368A). Kind of test: biochemical. The format is binding, turkey adenovirus 3 (TAdV-3).
For test [5], the target named is TAdV-3 fiber head mutant E392A (avirulent context) (Turkey adenovirus 3, UniProt A0ABF7PFF5, E392A). Kind of test: biochemical. The class given is binding, turkey adenovirus 3 (TAdV-3).
Test [6] has as its target T1, TAdV-3 fibre head (virulent) (Turkey adenovirus 3, UniProt Q9YUQ4).
T1 sequence (Q9YUQ4 304-454): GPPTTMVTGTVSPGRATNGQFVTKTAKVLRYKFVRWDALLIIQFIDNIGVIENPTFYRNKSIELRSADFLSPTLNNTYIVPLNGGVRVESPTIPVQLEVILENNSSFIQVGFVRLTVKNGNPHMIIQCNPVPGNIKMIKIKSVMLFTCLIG
The experiment in a line: Isothermal titration calorimetry (ITC), virulent fibre head. As to conditions: 25°C. The format is binding, turkey adenovirus 3 (TAdV-3). As to the method: (§2) Isothermal titration calorimetry (ITC) was performed at 25°C with a Microcal VP-ITC microcalorimeter (GE Healthcare, Madrid, Spain). The proteins were exhaustively dialyzed against the appropriate buffer (10 mM MES-NaOH pH 6.0 or 20 mM Tris-HCl, 100 mM NaCl pH 7.2), and sialyllactose solutions were prepared in the final dialysate. Titrations were performed by stepwise injections of the 3'- or 6'-sialyllactose-containing solution (21–40 mM) into the reaction cell loaded with the protein at concentrations of 78–474 μM. When required, a second set of injections followed the first one after refilling the injection pipette with the same sialyllactose solution. The CONCAT32 (GE Healthcare) program was used to concatenate the raw data of both series. The heat of ligand dilution was determined separately and subtracted from the total heat produced following each injection. Protein concentrations were determined spectrophotometrically at 280 nm using the predicted monomeric molar extinction coefficient (10,095 OD cm^-1 M^-1). Titration data were analyzed with the ORIGIN software (GE Healthcare).
On the technique in general: Isothermal titration calorimetry measures the heat released or taken up as one component is titrated into another.

Test [7] addresses TAdV-3 fibre head (avirulent) (Turkey adenovirus 3, UniProt A0ABF7PFF5). Kind of test: Isothermal titration calorimetry (ITC), avirulent fibre head. As to conditions: 25°C. The format is binding, turkey adenovirus 3 (TAdV-3). The method, then:
as §2

For test [8], the target named is TAdV-3 fiber head mutant K421A (avirulent context). The note with it: ITC, 25°C, pH 6.0; n.o. = no binding observed.
The target in test [9] is TAdV-3 fiber head mutant N407A (avirulent context) (Turkey adenovirus 3, UniProt A0ABF7PFF5, N407A). The experiment in a line: biochemical. The format is binding, turkey adenovirus 3 (TAdV-3).
The target in test [10] is TAdV-3 fiber head mutant K439A (avirulent context) (Turkey adenovirus 3, UniProt A0ABF7PFF5, K439A). Kind of test: biochemical. The class given is binding, turkey adenovirus 3 (TAdV-3).
[11] abbreviates: pH 6.0, three independent sites per trimer.
Setting [12] is: 10 μg/ml protein in TBS-T pH 7.2.

On to “transferrin: glycoprotein with 3'- and 6'-sialyl-N-acetyllactosamine terminal structures”, for which the “binding on glycan microarray (in words)” value in [1] (10 μg/ml protein in TBS-T pH 7.2, threshold five times background) was “did not bind”.

As for `O=C[C@H](O)[C@@H](O)[C@H](O)CO` [xylose], the “STD-NMR interaction (saturation transfer)” value (from here on “STD-NMR interaction”) in test [2] and in test [3] was “no interaction with the proteins could be measured” each time.

In the case of `CC(=O)NC1C(O)CC(OC2C(O)C(CO)OC(OC3C(CO)OC(O)C(O)C3O)C2O)(C(=O)O)OC1C(O)C(O)CO` (stereo not shown) [3'-sialyllactose], the equilibrium dissociation constant (Kd) (in general, the equilibrium constant for the complex coming apart) is 3.23 ± 0.03 mM in [4]; around 20 mM in [5]; 5.5 ± 0.1 mM in test [6] (setting [11]); around 37 mM in test [6] (pH 7.2); 3.64 ± 0.01 mM in [7] (setting [11]); around 24 mM in test [7] (pH 7.2). The values for the equilibrium dissociation constant (Kd) entry in test [8], in test [9] and in test [10] were “n.o. ^d”, 2.77 ± 0.04 mM and 3.2 ± 0.2 mM, respectively. The “- ΔH” value in [4] (ITC, 25°C, pH 6.0) was 3.86 ± 0.02 kcal/mol of sites; in test [6] (pH 6.0), 1.83 ± 0.03 kcal/mol of sites; in test [7] (pH 6.0) it was 4.43 ± 0.01 kcal/mol of sites; in [9] (ITC, 25°C, pH 6.0), 4.66 ± 0.04 kcal/mol of sites; in [10] (ITC, 25°C, pH 6.0), 3.9 ± 0.1 kcal/mol of sites. The “- ΔS” value in test [4] (ITC, 25°C, pH 6.0) is 1.54 ± 0.05 cal/mol of sites/deg; in test [6] (pH 6.0), -4.19 ± 0.07 cal/mol of sites/deg; in [7] (pH 6.0) it was 3.70 ± 0.03 cal/mol of sites/deg; in test [9] (ITC, 25°C, pH 6.0), 3.9 ± 0.1 cal/mol of sites/deg; in test [10] (ITC, 25°C, pH 6.0) it was 1.7 ± 0.2 cal/mol of sites/deg. In addition, the “STD-NMR interaction” value in [2] and in test [3] was “saturation transfer was observed” in each case. The “fluorescence intensity on glycan microarray” value in test [1] (setting [12]) is on record as 5,000 RFU.

As for `CC(=O)NC1C(O)CC(OCC2OC(OC3C(CO)OC(O)C(O)C3O)C(O)C(O)C2O)(C(=O)O)OC1C(O)C(O)CO` (stereo not shown) [6'-sialyllactose], the “STD-NMR interaction” value in [2] and in test [3] was “saturation transfer was observed” each time. Also, the Kd was around 20 mM in [6] (setting [11]), around 28 mM in [6] (pH 7.2), around 7 mM in test [7] (setting [11]) and around 23 mM in test [7] (pH 7.2). In addition, the “fluorescence intensity on glycan microarray” value in [1] (setting [12]) was 6,100 RFU.

Regarding `O=C[C@H](O)[C@@H](O)[C@@H](O)[C@H](O)CO` [galactose], the “inhibition of fibre head binding to the glycan microarray” value in test [1] is “No binding inhibition”.

As for `OC[C@H]1O[C@@H](O[C@H]2[C@H](O)[C@@H](O)C(O)O[C@@H]2CO)[C@H](O)[C@@H](O)[C@H]1O` (mixture of isomers) [lactose], the “inhibition of fibre head binding to the glycan microarray” value in test [1] is recorded as “No binding inhibition”.
